Laboratory results taken from patent publication US4284635A, “Analgesic 1,2,4,5-tetra-alkyl-4-arylpiperidines” (Eli Lilly and Company, priority 1978, dated 1981).

Experiment: rat-tail jerk assay (rats subjected to a heat sensation)
Assay type: in vivo
Details: subcutaneous
Source text: The analgesic activity of a number of compounds provided by this invention has been determined in the standard rat-tail jerk assay and the mouse writhing assay. The results in the mouse writhing assay are presented as the effective dose in mg./kg. of the tested compound required to inhibit induced writhing in the test animals by fifty percent (ED50). Results are presented in Column II for both subcutaneous (S.C.) and oral (p.o.) administration of the test compound recited in Column I.
Column III presents the effects of the claimed compounds on rats subjected to a heat sensation. The compounds recited in column I were administered subcutaneously to the test animals. The test results are reported as the minimum effective dose (MED) of compound in mg./kg. needed to delay response to the pain stimulus by one second compared to control animals.

CC1CC(C)(c2cccc(O)c2)C(C)CN1C (centres unmarked) [1,2,4,5-Tetramethyl-4-(3-hydroxyphenyl)piperidine]
Rat Tail Jerk MED 1 sec. (minimum effective dose needed to delay response to the pain stimulus by one second compared to control animals): 1 mg/kg

COc1cccc(C2(C)CC(C)N(C)CC2C)c1 (centres unmarked) [1,2,4,5-Tetramethyl-4-(3-methoxyphenyl)piperidine]
Rat Tail Jerk MED 1 sec. (minimum effective dose needed to delay response to the pain stimulus by one second compared to control animals): 10 mg/kg

CCCC1(c2cccc(OC)c2)CC(C)N(C)CC1C (centres unmarked) [1,2,5-Trimethyl-4-n-propyl-4-(3-methoxyphenyl)piperidine]
Rat Tail Jerk MED 1 sec. (minimum effective dose needed to delay response to the pain stimulus by one second compared to control animals): 2 mg/kg

CCCC1(c2cccc(O)c2)CC(C)N(C)CC1C (centres unmarked) [1,2,5-trimethyl-4-n-propyl-4-(3-hydroxyphenyl)piperidine]
Rat Tail Jerk MED 1 sec. (minimum effective dose needed to delay response to the pain stimulus by one second compared to control animals): 20 mg/kg

CCOC(=O)C1(c2ccccc2)CCN(C)CC1 [Meperidine, reference compound]
Rat Tail Jerk MED 1 sec. (minimum effective dose needed to delay response to the pain stimulus by one second compared to control animals): 3.0 mg/kg
